Experimental data as given in PubChem BioAssay (NCI).
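How tested: cells in 96-well plates exposed to compound for 48 hours at five concentrations. GI50: concentration for 50% inhibition of growth. Definition used: TGI = concentration required for complete inhibition of growth.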

What was measured:
Assay in all cases: NCI tumour cell line growth inhibition, 48 h
[1] = system: OVCAR-4 ovarian
[2] = system: TK-10 renal
[3] = system: MDA-MB-435
[4] = system: NCI-H226 lung
[5] = system: OVCAR-8 ovarian
[6] = system: CAKI-1 renal
[7] = system: LOX IMVI melanoma
[8] = system: UO-31 renal
[9] = system: HS 578T breast
[10] = system: HOP-62 NSCLC
[11] = system: OVCAR-5 ovarian
[12] = system: SNB-75 CNS
[13] = system: MALME-3M melanoma
[14] = system: MCF7 breast
[15] = system: SN12C renal
[16] = system: MDA-MB-231 breast
[17] = system: HOP-92 NSCLC
[18] = system: OVCAR-3 ovarian
[19] = system: UACC-62 melanoma
[20] = system: IGROV1 ovarian
[21] = system: M14 melanoma
[22] = system: EKVX NSCLC
[23] = system: BT-549 breast
[24] = system: SW-620 colon
[25] = system: A498 renal
[26] = system: ACHN renal
[27] = system: SF-268 CNS
[28] = system: NCI-H522 lung
[29] = system: SK-MEL-28 melanoma
[30] = system: NCI-H23 lung
[31] = system: K-562 leukemia
[32] = system: UACC-257 melanoma
[33] = system: SK-MEL-2 melanoma
[34] = system: HCT-116 colon
[35] = system: SK-MEL-5 melanoma
[36] = system: 786-0 renal
[37] = system: SK-OV-3 ovarian
[38] = system: SNB-19 CNS
[39] = system: KM12 colon
[40] = system: CCRF-CEM leukemia
[41] = system: U251 CNS
[42] = system: HT29 colon
[43] = system: SF-295 CNS
[44] = system: RPMI-8226 leukemia
[45] = system: RXF 393 renal
[46] = system: HL-60(TB) leukemia
[47] = system: MOLT-4 leukemia
[48] = system: NCI/ADR-RES ovarian
[49] = system: COLO 205 colon
[50] = system: HCC-2998 colon
[51] = system: A549 NSCLC
[52] = system: DU-145 prostate
[53] = system: SR leukemia
[54] = system: T-47D breast
[55] = system: PC-3 prostate
[56] = system: HCT-15 colon
[57] = system: SF-539 CNS
[58] = system: NCI-H460 lung

In the case of `Fc1cccc(COc2ccc(Nc3ncnc4sc(-c5cccs5)cc34)cc2Cl)c1`, the GI50 [1] is reported as 2.06 µM, the TGI [1] is reported as 8.66 µM and the GI50 [2] is reported as 4.76 µM. For the same compound, the TGI [2] was 10.8 µM, the GI50 [3] was 3.61 µM and the TGI [3] was over 19.1 µM. It also gave a GI50 [4] of 4.58 µM, a TGI [4] of 15.2 µM and a GI50 [5] of 5.5 µM. It also gave a TGI [5] of over 17.4 µM, a GI50 [6] of over 9.71 µM and a TGI [6] of over 25 µM. It also gave a GI50 [7] of over 14.6 µM, a TGI [7] of over 25 µM and a GI50 [8] of 5.78 µM. It also gave a TGI [8] of over 24.1 µM, a GI50 [9] of over 8.44 µM and a TGI [9] of over 14.9 µM. It also gave a GI50 [10] of 4.88 µM, a TGI [10] of 9.86 µM and a GI50 [11] of 6.89 µM. For the same compound, the TGI [11] was over 25 µM, the GI50 [12] was 4.17 µM and the TGI [12] was 10 µM. For the same compound, the GI50 [13] was 3.52 µM, the TGI [13] was 10.1 µM and the GI50 [14] was 0.75 µM. For the same compound, the TGI [14] was 8.42 µM, the GI50 [15] was 9.2 µM and the TGI [15] was over 25 µM. It also gave a GI50 [16] of 5.73 µM, a TGI [16] of 16.4 µM and a GI50 [17] of 3.3 µM. For the same compound, the TGI [17] was 10.2 µM, the GI50 [18] was 0.77 µM and the TGI [18] was 6.24 µM. It also gave a GI50 [19] of 1.59 µM, a TGI [19] of 5.71 µM and a GI50 [20] of 8.73 µM. The TGI [20] was over 25 µM, the GI50 [21] was 7.66 µM and the TGI [21] was over 25 µM. For the same compound, the GI50 [22] was 4.74 µM, the TGI [22] was over 20.4 µM and the GI50 [23] was 6.25 µM. The TGI [23] was 15.6 µM, the GI50 [24] was over 13.3 µM and the TGI [24] was over 25 µM. It also gave a GI50 [25] of 6.88 µM, a TGI [25] of over 21.7 µM and a GI50 [26] of 3.24 µM. For the same compound, the TGI [26] was 7.24 µM, the GI50 [27] was 11.4 µM and the TGI [27] was over 22.8 µM. The GI50 [28] was 7.55 µM, the TGI [28] was over 22.4 µM and the GI50 [29] was 6.58 µM. For the same compound, the TGI [29] was over 22.8 µM, the GI50 [30] was over 13.6 µM and the TGI [30] was over 25 µM. For the same compound, the GI50 [31] was over 25 µM, the TGI [31] was over 25 µM and the GI50 [32] was 1.42 µM. It also gave a TGI [32] of over 14 µM, a GI50 [33] of 2.46 µM and a TGI [33] of 8.83 µM. For the same compound, the GI50 [34] was 7.59 µM, the TGI [34] was over 23.8 µM and the GI50 [35] was 2.93 µM. The TGI [35] was 12 µM, the GI50 [36] was 8.34 µM and the TGI [36] was over 18.7 µM. For the same compound, the GI50 [37] was 3.47 µM, the TGI [37] was 9.69 µM and the GI50 [38] was 5.33 µM. For the same compound, the TGI [38] was 12 µM, the GI50 [39] was 4.07 µM and the TGI [39] was over 25 µM. The GI50 [40] was over 25 µM, the TGI [40] was over 25 µM and the GI50 [41] was 5.75 µM. It also gave a TGI [41] of 15.9 µM, a GI50 [42] of 6.93 µM and a TGI [42] of 17.9 µM. For the same compound, the GI50 [43] was 9.81 µM, the TGI [43] was over 25 µM and the GI50 [44] was over 25 µM. For the same compound, the TGI [44] was over 25 µM, the GI50 [45] was 4.37 µM and the TGI [45] was 12 µM. It also gave a GI50 [46] of over 25 µM, a TGI [46] of over 25 µM and a GI50 [47] of over 25 µM. It also gave a TGI [47] of over 25 µM, a GI50 [48] of 4.74 µM and a TGI [48] of over 17.3 µM. It also gave a GI50 [49] of 1.42 µM, a TGI [49] of 10.5 µM and a GI50 [50] of 5.25 µM. It also gave a TGI [50] of over 18.4 µM, a GI50 [51] of 9.32 µM and a TGI [51] of over 25 µM. The GI50 [52] was 11.1 µM, the TGI [52] was over 17.7 µM and the GI50 [53] was over 16.4 µM. It also gave a TGI [53] of over 25 µM, a GI50 [54] of 2.71 µM and a TGI [54] of 9.04 µM. The GI50 [55] was over 10.7 µM, the TGI [55] was over 20.4 µM and the GI50 [56] was 9.11 µM. For the same compound, the TGI [56] was over 25 µM, the GI50 [57] was 5.55 µM and the TGI [57] was 15.3 µM. For the same compound, the GI50 [58] was 7.63 µM and the TGI [58] was over 17 µM.
